Molecules are shown by their SMILES.

Usually EC50 stands for the concentration needed to bring the measured effect to its halfway point.

The assay deals with T1, CXCR7 (Homo sapiens, UniProt P25106).
T1 construct: host or cells: CHO-K1 (PathHunter CHO-K1 CXCR7 b-arrestin cell line, stably transfected)
Kind of assay: PathHunter CHO-K1 CXCR7 b-arrestin recruitment assay (CXCR7 agonistic activity). The class given is cell-based. The conditions noted are these: PathHunter CHO-K1 CXCR7 b-arrestin cell line. The essentials: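 Stable CHO-K1 line with C-terminally ProLink-tagged CXCR7 and β-arrestin 2–EA fusion; β-arrestin recruitment restores β-gal activity, read by chemiluminescence after 1 h RT detection. Cells seeded 24 h, starved in OPTIMEM 3–4 h, exposed to compounds 90 min at 37 °C in HBSS/HEPES/BSA. Geometric-mean EC50 from repeated measurements.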
A general note: Arrestin recruitment assays detect the binding of arrestin to an activated receptor.

T1 sequence (P25106 whole entry): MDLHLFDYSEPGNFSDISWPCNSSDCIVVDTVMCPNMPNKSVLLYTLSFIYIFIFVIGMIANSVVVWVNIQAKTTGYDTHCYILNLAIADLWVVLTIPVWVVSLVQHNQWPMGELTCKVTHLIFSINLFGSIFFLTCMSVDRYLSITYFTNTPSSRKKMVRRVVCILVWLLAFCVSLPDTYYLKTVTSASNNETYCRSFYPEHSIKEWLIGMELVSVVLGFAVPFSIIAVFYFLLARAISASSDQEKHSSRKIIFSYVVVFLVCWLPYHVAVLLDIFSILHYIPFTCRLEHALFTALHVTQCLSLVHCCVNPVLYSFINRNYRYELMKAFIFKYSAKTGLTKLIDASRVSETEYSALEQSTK
T1 sequence (P32121 whole entry partner): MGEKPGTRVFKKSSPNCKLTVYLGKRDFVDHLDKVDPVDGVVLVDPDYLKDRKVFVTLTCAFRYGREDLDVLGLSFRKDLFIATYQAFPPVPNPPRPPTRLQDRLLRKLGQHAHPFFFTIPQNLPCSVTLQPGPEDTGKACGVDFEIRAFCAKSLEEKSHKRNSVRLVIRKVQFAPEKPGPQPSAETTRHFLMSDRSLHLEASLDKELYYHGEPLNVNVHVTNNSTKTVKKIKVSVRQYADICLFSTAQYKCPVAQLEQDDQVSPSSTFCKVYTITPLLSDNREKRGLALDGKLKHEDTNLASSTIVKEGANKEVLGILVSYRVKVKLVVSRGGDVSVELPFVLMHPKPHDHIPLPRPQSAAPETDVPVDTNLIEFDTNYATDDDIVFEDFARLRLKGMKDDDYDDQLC

`CN(C)CCN(Cc1ccccc1C(F)(F)F)C(=O)CNc1cccc2c1CCN(C1CCOC1)C2` (racemic) [Example 351, rac-N-(2-Dimethylamino-ethyl)-2-[2-(tetrahydro-furan-3-yl)-1,2,3,4-tetrahydro-isoquinolin-5-ylamino]-N-(2-trifluoromethyl-benzyl)-acetamide] had a concentration giving a half-maximal response (EC50) of 0.034 µM.

Consider `CN(C)CCCN(Cc1ccccc1)C(=O)CNc1cccc2c1CCN(CC1CC1)C2` [Example 37, N-Benzyl-2-(2-cyclopropylmethyl-1,2,3,4-tetrahydro-isoquinolin-5-ylamino)-N-(3-dimethylamino-propyl)-acetamide], for which a half-maximal effect (EC50) was put at 0.004 µM.

The compound `COC(=O)N1CCc2c(cccc2NCC(=O)N(CCN(C)C)Cc2ccccc2)C1` [Example 113, 5-({[Benzyl-(2-dimethylamino-ethyl)-carbamoyl]-methyl}-amino)-3,4-dihydro-1H-isoquinoline-2-carboxylic acid methyl ester] showed an EC50 of 0.026 µM.

`COCCN1CCc2c(/C=C/C(=O)N(Cc3ncccc3Cl)CC(C)(C)O)cccc2C1` [Example 328, (E)-N-(3-Chloro-pyridin-2-ylmethyl)-N-(2-hydroxy-2-methyl-propyl)-3-[2-(2-methoxy-ethyl)-1,2,3,4-tetrahydro-isoquinolin-5-yl]-acrylamide] came in with an EC50 of 0.293 µM. Next, `CCCC(=O)N1CCc2c(cccc2NCC(=O)N(CCNC)Cc2ccccc2C(F)(F)F)C1` [compound 386, 2-(2-Butyryl-1,2,3,4-tetrahydro-isoquinolin-5-ylamino)-N-(2-methylamino-ethyl)-N-(2-trifluoromethyl-benzyl)-acetamide]: 0.012 µM; `CCN1CCc2cccc(NCC(=O)N(CCN(C)C)Cc3ccc(F)cc3)c2C1` [compound 504]: 0.093 µM. Next, `CC(C)OC(=O)N1CCc2cccc(NCC(=O)N(CCN(C)C)Cc3ccccc3)c2C1` [compound 192, 8-({[Benzyl-(2-dimethylamino-ethyl)-carbamoyl]-methyl}-amino)-3,4-dihydro-1H-isoquinoline-2-carboxylic acid isopropyl ester]: 0.038 µM; `CN(C)CCN(Cc1ncccc1C(F)(F)F)C(=O)Cc1cccc2c1CCN(CC1CC1)C2` [Example 5, 2-(2-Cyclopropylmethyl-1,2,3,4-tetrahydro-isoquinolin-5-yl)-N-(2-dimethylamino-ethyl)-N-(3-trifluoromethyl-pyridin-2-ylmethyl)-acetamide]: 0.187 µM; `NCCN(Cc1ccccc1C(F)(F)F)C(=O)CNc1cccc2c1CCN(CC1CC1)C2` [compound 442, N-(2-Amino-ethyl)-2-(2-cyclopropylmethyl-1,2,3,4-tetrahydro-isoquinolin-5-ylamino)-N-(2-trifluoromethyl-benzyl)-acetamide]: 0.01 µM. Next, `CN(C)CCN(Cc1ccccc1)C(=O)CNc1cccc2c1CN(C)C2` [Example 208, N-Benzyl-N-(2-dimethylamino-ethyl)-2-(2-methyl-2,3-dihydro-1H-isoindol-4-ylamino)-acetamide]: 0.248 µM. Take `CC(CF)N(C)CCN(Cc1ccccc1C(F)(F)F)C(=O)CNc1cccc2c1CCN(CC1CC1)C2` (racemic) [compound 452]: the response was half-maximal at 0.004 µM (EC50).

As for `CCCC(=O)N1CCc2c(cccc2NCC(=O)N(CCN(C)C)Cc2ccccc2)C1` [compound 114, N-Benzyl-2-(2-butyryl-1,2,3,4-tetrahydro-isoquinolin-5-ylamino)-N-(2-dimethylamino-ethyl)-acetamide], the EC50 came to 0.036 µM.

With `CNCCN(Cc1ccccc1C(F)(F)F)C(=O)CNc1cccc2c1CC(=O)N(CC(C)C)C2` [compound 383], the EC50 came to 0.051 µM. This EC50 and that of the compound before are within 1.5-fold of each other. `CCN(Cc1ccccc1Cl)C(=O)/C=C/c1cccc2c1CCN(CC1CC1)C2` [compound 139] returned an EC50 of 0.055 µM.

The compound `O=C(CNc1cccc2c1CCN(CC1CC1)C2)N(CCN1CCOCC1)Cc1ccccc1C(F)(F)F` [Example 64, 2-(2-Cyclopropylmethyl-1,2,3,4-tetrahydro-isoquinolin-5-ylamino)-N-(2-morpholin-4-yl-ethyl)-N-(2-trifluoromethyl-benzyl)-acetamide] had a 50% effective concentration (EC50) of 0.008 µM. In turn, `CN(C)CCN(Cc1ncccc1Br)C(=O)CNc1cccc2c1CN(C1CCC1)CC2` [compound 456, N-(3-Bromo-pyridin-2-ylmethyl)-2-(2-cyclobutyl-1,2,3,4-tetrahydro-isoquinolin-8-ylamino)-N-(2-dimethylamino-ethyl)-acetamide] showed a concentration giving a half-maximal response (EC50) of 0.008 µM. With `CCN1CCc2c(cccc2NCC(=O)N(CCN(C)C)Cc2ccccc2Cl)C1` [compound 133, N-(2-Chloro-benzyl)-N-(2-dimethylamino-ethyl)-2-(2-ethyl-1,2,3,4-tetrahydro-isoquinolin-5-ylamino)-acetamide], the concentration for a half-maximal effect (EC50) came to 0.02 µM.

`CN(C)CCN(Cc1ncccc1Br)C(=O)CNc1cccc2c1C(C)(C)CN(CC1CC1)C2` [Example 575, N-(3-Bromo-pyridin-2-ylmethyl)-2-(2-cyclopropylmethyl-4,4-dimethyl-1,2,3,4-tetrahydro-isoquinolin-5-ylamino)-N-(2-dimethylamino-ethyl)-acetamide] registered an EC50 of 0.0009 µM.

Consider `CC(C)(O)CN(Cc1ncccc1Br)C(=O)CNc1cccc2c1CN(C(=O)[C@H]1C[C@H]1F)CC2` (relative stereo) [compound 461], for which the 50% effective concentration (EC50) stood at 0.42 µM. Compared with the last compound, the EC50 is about 470-fold higher. As to `COCCN1CCc2c(cccc2NCC(=O)N(CCN2CCC(F)(F)CC2)Cc2ncccc2C(F)(F)F)C1` [Example 300, N-[2-(4,4-Difluoro-piperidin-1-yl)-ethyl]-2-[2-(2-methoxy-ethyl)-1,2,3,4-tetrahydro-isoquinolin-5-ylamino]-N-(3-trifluoromethyl-pyridin-2-ylmethyl)-acetamide], the half-maximal effective concentration (EC50) was 0.096 µM. Regarding `O=C(CNc1cccc2c1CCN(CC1CC1)C2)N(Cc1ccccc1)C1CCNC1` (racemic) [Example 178, rac-N-Benzyl-2-(2-cyclopropylmethyl-1,2,3,4-tetrahydro-isoquinolin-5-ylamino)-N-pyrrolidin-3-yl-acetamide], the EC50 is 0.025 µM. Turning to `CCC(=O)N1CCc2cccc(NCC(=O)N(CCN(C)C)Cc3ccccc3C(F)(F)F)c2C1` [compound 559, N-(2-Dimethylamino-ethyl)-2-(2-propionyl-1,2,3,4-tetrahydro-isoquinolin-8-ylamino)-N-(2-trifluoromethyl-benzyl)-acetamide], a half-maximal response (EC50) required 0.013 µM. Consider `O=C(CNc1cccc2c1CCN(CC1CC1)C2)N(CCN1CCNC1=O)Cc1ccccc1C(F)(F)F` [Example 79, 2-(2-Cyclopropylmethyl-1,2,3,4-tetrahydro-isoquinolin-5-ylamino)-N-[2-(2-oxo-imidazolidin-1-yl)-ethyl]-N-(2-trifluoromethyl-benzyl)-acetamide], for which the concentration giving a half-maximal response (EC50) was 0.135 µM. In turn, `CNCCN(Cc1ccccc1C(F)(F)F)C(=O)CNc1cccc2c1CCN(C(=O)C(C)(C)C)C2` [compound 390] gave an EC50 of 0.083 µM.

Regarding `CN(C)CCN(CCc1cccc(C(F)(F)F)c1)C(=O)CNc1cccc2c1CCN(CC1CC1)C2` [Example 55, 2-(2-Cyclopropylmethyl-1,2,3,4-tetrahydro-isoquinolin-5-ylamino)-N-(2-dimethylamino-ethyl)-N-[2-(3-trifluoromethyl-phenyl)-ethyl]-acetamide], the EC50 is 0.043 µM. Consider `CC(C)OC(=O)N1CCc2c(cccc2NCC(=O)N(CCN(C)C)Cc2ccccc2)C1` [compound 121], for which the response was half-maximal at 0.101 µM (EC50). For the compound `CC(C)(C)CCN(Cc1ccccc1C(F)(F)F)C(=O)CNc1cccc2c1CCN(CC1CC1)C2` [Example 274, 2-(2-Cyclopropylmethyl-1,2,3,4-tetrahydro-isoquinolin-5-ylamino)-N-(3,3-dimethyl-butyl)-N-(2-trifluoromethyl-benzyl)-acetamide], a half-maximal effect (EC50) was put at 0.179 µM.

In the case of `CN1CCCC1CCN(Cc1ccccc1C(F)(F)F)C(=O)CNc1cccc2c1CCN(CC1CC1)C2` (centres unmarked) [Example 213, 2-(2-Cyclopropylmethyl-1,2,3,4-tetrahydro-isoquinolin-5-ylamino)-N-[2-(1-methyl-pyrrolidin-2-yl)-ethyl]-N-(2-trifluoromethyl-benzyl)-acetamide], the concentration for a half-maximal effect (EC50) came out at 0.002 µM. Next, `CN(C)CCN(Cc1ccc(Nc2ccc(F)cc2)cn1)C(=O)CNc1cccc2c1CCN(CC1CC1)C2` [Example 285, 2-(2-Cyclopropylmethyl-1,2,3,4-tetrahydro-isoquinolin-5-ylamino)-N-(2-dimethylamino-ethyl)-N-[5-(4-fluoro-phenylamino)-pyridin-2-ylmethyl]-acetamide]: 0.408 µM; `COCCN1CCc2c(/C=C/C(=O)N(CCN(C)C)Cc3ncccc3C(F)(F)F)cccc2C1` [Example 318, (E)-N-(2-Dimethylamino-ethyl)-3-[2-(2-methoxy-ethyl)-1,2,3,4-tetrahydro-isoquinolin-5-yl]-N-(3-trifluoromethyl-pyridin-2-ylmethyl)-acrylamide]: 0.007 µM; `CN(C)CCN(Cc1ccccc1)C(=O)CCc1cccc2c1CCN(CC1CC1)C2` [compound 161, N-Benzyl-3-(2-cyclopropylmethyl-1,2,3,4-tetrahydro-isoquinolin-5-yl)-N-(2-dimethylamino-ethyl)-propionamide]: 0.004 µM. As for `CCOC(=O)CN(Cc1ccccc1)C(=O)/C=C/c1cccc2c1CCN(C(=O)OC(C)(C)C)C2` [Example 94, 5-[(E)-2-(Benzyl-ethoxycarbonylmethyl-carbamoyl)-vinyl]-3,4-dihydro-1H-isoquinoline-2-carboxylic acid tert-butyl ester], the figure is 0.452 µM; as for `CCN1CCc2cccc(NCC(=O)N(CCN(C)C)Cc3ccc(F)cc3C(F)(F)F)c2C1` [compound 523], 0.058 µM. For `CCN1CCc2c(cccc2OCC(=O)N(CCN(C)C)Cc2ccccc2)C1` [compound 165], the EC50 is 0.061 µM. `CNCCN(Cc1ccccc1C(F)(F)F)C(=O)CNc1cccc2c1CCN(C(=O)OCC(C)C)C2` [compound 401]: the EC50 turned out to be 0.25 µM.

These data come from US9920010B2, “CXCR7 receptor modulators” (IDORSIA PHARMACEUTICALS LTD, priority 2013, dated 2018).
